Measured values reported in patent US20230064292A1, “METHODS OF TREATING PSMA-POSITIVE CANCER USING RADIONUCLIDE THERAPY” (priority 2020, published 2023).

Tests used:
[1] = test system: bone metastases in prostate cancer; settings: palliative treatment of bone metastases in prostate cancer; cited from earlier work
[2] = previous dosimetry studies in patients; cited from earlier work
[3] = 177Lu-PSMA-617 (7.4 GBq), Violet et al; cited from earlier work
[4] = reported value; cited from earlier work
[5] = test system: PSMA-expressing PC3-PIP cells; assay: Cellular uptake and internalization in PSMA-expressing PC3-PIP cells; type: cell-based
Source text: The PSMA binding scaffold of PSMA binds irreversibly to the extracellular enzymatic domain of PSMA leading to rapid internalization by PSMA-expressing cancer cells. Tumor cell uptake of CTT1403 is ˜84% after just 2½ hours (FIG. 1), compared to less than 40% tumor cell uptake of ^177Lu-PSMA-617 (structure shown below), in PSMA-expressing PC3-PIP cells.
Given that 99% of cell bound CTT1403 is internalized, compared to just 15% of ^177Lu-PSMA-617, targeting by CTT1403 is expected to confer a significant therapeutic advantage. This greater uptake will allow treatment of smaller tumors for a longer time. Both irreversible binding and cellular internalization increases exposure of target tissue to the therapeutic agent. Greater accumulation in the target tissue will permit a lower efficacious dose and/or dosing frequency, thus reducing a patient's total clinical exposure to the radionuclide and improving the therapeutic index.

[6] = test system: tumor; settings: cited from earlier work
[7] = 177Lu-PSMA-617 (7.4 GBq), Violet et al

Row | SMILES | average increase in survival [1] | potential dose limited organs [2] | Kidney dose, Dose Gy/GBq [3] [Gy/GBq] | Kidney dose, Mean Dose for (Gy) [3] [Gy] | half-life during the elimination phase [4] [h] | initial half-life during the distribution phase [4] [min] | cell bound agent that is internalized ([5]; PSMA-expressing PC3-PIP cells) [%] | Tumor cell uptake ([5]; after 2½ hours, PSMA-expressing PC3-PIP cells (FIG. 1)) | Tumor (PSA < 50%), Dose Gy/GBq [6, 7] [Gy/GBq] | Tumor (PSA < 50%), Mean Dose for (Gy) [6, 7] [Gy] | Tumor (PSA ≥ 50%), Dose Gy/GBq [6, 7] [Gy/GBq] | Tumor (PSA ≥ 50%), Mean Dose for (Gy) [6, 7] [Gy] | tumor dose delivered that is associated with efficacy (reduction of circulating PSA) ([6]; over several cycles of therapy, published studies)
1 | [Cl][223Ra][Cl] [Radium-223 chloride] | 3-4 months |  |  |  |  |  |  |  |  |  |  |  | 
2 | O=C([O-])CN1CCN(CC(=O)[O-])CCN(CC(=O)NCC2CCC(C(=O)N[C@@H](Cc3ccc4ccccc4c3)C(=O)NCCCC[C@H](NC(=O)N[C@@H](CCC(=O)O)C(=O)O)C(=O)O)CC2)CCN(CC(=O)[O-])CC1.[177Lu+3] (stereo partly shown) [177Lu-PSMA-617] |  | salivary glands, kidneys and bone marrow | 0.77 | 3.2 | 10.8 ± 2.5 | 9.6 ± 5.4 | 15 | less than 40% | 1.41 | 10.4 | 1.91 | 14.1 | 10-14 Gy
